In US8278460B2, “Substituted benzimidazoles” (Concert Pharmaceuticals, Inc., priority 2009, dated 2012):

Legend:
[1] = Metabolic stability in human liver microsomes; format: in vitro ADME; settings: for % Parent Remaining (30 min) Ave ± SD: 2.0 mg/mL human liver microsomes, 2 mM NADPH, pH 7.4, 37° C., average of 3 experiments
Method: Human liver microsomes (20 mg/mL) were available from Xenotech, LLC (Lenexa, Kans.). β-nicotinamide adenine dinucleotide phosphate, reduced form (NADPH), magnesium chloride (MgCl2), and dimethyl sulfoxide (DMSO) are available from Sigma-Aldrich.
7.5 mM stock solutions of test compound 102 as well as of NS11394 were prepared in DMSO. The 7.5 mM stock solutions were diluted to 12.5 in acetonitrile (ACN). The 20 mg/mL human liver microsomes were diluted to 2.5 mg/mL in 0.1 M potassium phosphate buffer, pH 7.4, containing 3 mM MgCl2. The diluted microsomes were added to wells of a 96-well deep-well polypropylene plate in triplicate. A […] aliquot of the 12.5 test compound 102 was added to the microsomes and the mixture was pre-warmed for 10 minutes. Reactions were initiated by addition of pre-warmed NADPH solution. The final reaction volume was 0.5 mL and contained 2.0 mg/mL human liver microsomes, 0.25 test compound, and 2 mM NADPH in 0.1 M potassium phosphate buffer, pH 7.4, and 3 mM MgCl2. The reaction mixtures were incubated at 37° C., and […] aliquots were removed at 0, 5, 10, 20, and 30 minutes and added to shallow-well 96-well plates which contain […] of ice-cold ACN with internal standard to stop the reactions. The plates were stored at 4° C. for 20 minutes after which […] of water was added to the wells of the plate before centrifugation to pellet precipitated proteins. Supernatants were transferred to another 96-well plate and analyzed for amounts of parent remaining by LC-MS/MS using an AB SCIEX QTRAP® 5500. Testing was done in triplicate.
The in vitro t1/2s for test compounds were calculated from the slopes of the linear regression of % parent remaining (ln) vs incubation time relationship: in vitro t1/2=0.693/k k=−[slope of linear regression of % parent remaining (ln) vs incubation time]. Data analysis was performed using Microsoft Excel Software.
The testing was done in triplicate and the values shown in the table reflect the average of 3 experiments. […]

GABAA α3 receptors = target: T1, GABAA α3 receptors (Homo sapiens, UniProt P18507+P34903); settings: cited from earlier work
T1 sequence (P34903 29-492): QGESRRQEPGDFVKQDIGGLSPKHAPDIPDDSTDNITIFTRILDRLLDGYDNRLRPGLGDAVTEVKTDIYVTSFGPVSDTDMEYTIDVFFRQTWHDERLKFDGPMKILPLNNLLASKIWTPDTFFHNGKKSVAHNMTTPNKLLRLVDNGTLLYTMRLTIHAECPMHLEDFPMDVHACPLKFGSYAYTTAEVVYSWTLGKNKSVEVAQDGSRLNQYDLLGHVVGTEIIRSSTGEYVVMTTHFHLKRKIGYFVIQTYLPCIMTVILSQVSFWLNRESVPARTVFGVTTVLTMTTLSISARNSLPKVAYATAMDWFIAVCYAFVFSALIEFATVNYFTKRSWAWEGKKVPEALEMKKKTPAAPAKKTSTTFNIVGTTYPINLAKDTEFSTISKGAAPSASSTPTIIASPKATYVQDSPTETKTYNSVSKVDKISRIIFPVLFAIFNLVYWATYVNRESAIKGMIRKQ
T1 sequence (P18507 40-467 limits assumed): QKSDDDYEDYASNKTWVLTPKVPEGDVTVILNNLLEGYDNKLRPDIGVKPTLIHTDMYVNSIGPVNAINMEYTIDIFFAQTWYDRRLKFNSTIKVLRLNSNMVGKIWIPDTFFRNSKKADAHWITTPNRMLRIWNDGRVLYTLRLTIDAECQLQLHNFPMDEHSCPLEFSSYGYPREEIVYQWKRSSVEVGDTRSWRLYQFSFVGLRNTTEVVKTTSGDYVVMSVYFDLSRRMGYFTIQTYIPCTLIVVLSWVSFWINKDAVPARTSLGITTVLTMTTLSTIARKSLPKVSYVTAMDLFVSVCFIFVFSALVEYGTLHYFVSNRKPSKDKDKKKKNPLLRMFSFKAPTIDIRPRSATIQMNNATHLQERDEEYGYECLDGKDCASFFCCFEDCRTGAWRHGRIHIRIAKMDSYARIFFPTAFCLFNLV
T1 sequence (P47870 25-512 partner limits assumed): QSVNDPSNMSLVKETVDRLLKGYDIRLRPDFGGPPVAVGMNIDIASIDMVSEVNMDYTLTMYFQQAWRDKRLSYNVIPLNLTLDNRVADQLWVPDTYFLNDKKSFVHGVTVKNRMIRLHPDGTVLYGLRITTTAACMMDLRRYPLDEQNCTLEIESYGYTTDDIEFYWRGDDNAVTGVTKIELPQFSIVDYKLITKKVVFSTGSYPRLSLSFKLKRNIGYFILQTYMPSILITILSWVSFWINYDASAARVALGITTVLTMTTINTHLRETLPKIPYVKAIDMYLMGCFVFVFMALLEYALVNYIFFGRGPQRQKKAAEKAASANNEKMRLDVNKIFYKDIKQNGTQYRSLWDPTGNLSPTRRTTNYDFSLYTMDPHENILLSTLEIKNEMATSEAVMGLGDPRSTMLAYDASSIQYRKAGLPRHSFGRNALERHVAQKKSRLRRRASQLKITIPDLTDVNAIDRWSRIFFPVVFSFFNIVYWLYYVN

rodent anxiety models = settings: in vivo; cited from earlier work
[2] = test system: inflammatory and neuropathic pain-like behaviors in animal models; settings: cited from earlier work
[3] = animal models, oral administration

Row | % Parent Remaining (30 min) Ave ± SD [1] [%] | half-life ([1]; human, human liver microsomes, pH 7.4, in vitro t1/2 from linear regression of ln % parent remaining vs incubation time, NC = not calculable due to <20% metabolism in HLM, read-out: t1/2 (min) Ave ± SD) [min] | Structure (SMILES) | efficacy at GABAA α3 receptors (GABAA α3 receptors) | efficacy in rodent anxiety models (rodent anxiety models) | reversal of inflammatory and neuropathic pain-like behaviors [2, 3] | tolerability [2, 3] | dependence issues ([2]; in vivo)
1 | 101 ± 8.7 | – | [2H]C([2H])([2H])C(O)(c1ccc2c(c1)ncn2-c1cccc(-c2ccccc2C#N)c1)C([2H])([2H])[2H] [Compound 102, 3′-(5-(2-Hydroxy-1,1,1,3,3,3-d6-propan-2-yl)-1H-benzo[d]imidazol-1-yl)biphenyl-2-carbonitrile] | – | – | – | – | –
2 | 77 ± 3.7 | 95 ± 35 | CC(C)(O)c1ccc2c(c1)ncn2-c1cccc(-c2ccccc2C#N)c1 [NS11394, 3′-[5-(1-hydroxy-1-methylethyl)-1H-benzimidazol-1-yl]biphenyl-2-carbonitrile] | high efficacy | potent and highly effective | completely reverse | well tolerated | No dependence issues were observed
